From patent US5608143A, “External regulation of gene expression” (E. I. Du Pont de Nemours and Company, priority 1994, dated 1997)

How the values were obtained:
2-1 gene (In 2-1 mRNA) = test: RNA slot blot / Northern analysis of 2-1 mRNA in roots of chemically treated corn; assay type: in vivo, corn (Missouri 17); settings: six hours, corn roots; for In 2-1: net amount of radioactivity hybridizing to treated RNA after subtraction of untreated RNA: 200 mg/l hydroponic, slot blot 2 μg total RNA
Experimental: Missouri 17 corn seeds were surface sterilized by soaking them in a solution of 10% commercial bleach and 0.1% sodium dodecylsulfate (SDS) for 30 minutes. Seeds were then rinsed thoroughly in a buchner funnel with sterile distilled water and prepared for germination by placing them onto 5-6 layers of moist sterile paper towels in a 8"×10" glass baking tray. The tray was covered with aluminum foil and placed in the dark in a 30° C. incubator for 48-72 hours to allow the seeds to germinate. After germination, seedlings were grown hydroponically in an apparatus consisting of a sheet of 8 mesh stainless steel wire gauze suspended over the top of a 2 liter glass beaker filled with sterile half strength Hoagland's solution (referred to 0.5× Hoagland's) so that the roots extended through the mesh and into the media. The hydroponic apparatus was aerated by introducing humidified air into the bottom of the beaker with a gas diffusing stone commonly used in tropical fish aquariums. The apparatus was covered with a loose-fitting sheet of aluminum foil and placed in a reach-in growth chamber illuminated by both fluorescent and incandescent lamps at an intensity of 4400 lux. Seedlings were grown at 28° C., 75% relative humidity using a 16 hour day/8 hour night cycle. After two days, the foil was removed and plants were grown for an additional 5-6 days. Any 0.5× Hoagland's lost to evaporation was replenished every 2-3 days. […] Plants were then allowed to grow for six additional hours prior to harvest.
A nitrocellulose filter (Schlicher and Schull BA-85) was wetted by soaking it twice for 10 minutes in water, followed by a 10 minute soak in 1M ammonium acetate. The filter was then placed into a Slot Blot apparatus (Schleicher and Schuell, Inc., Keene, N.H. 03431, CAT #SRC072/0). […] Forty pl of denaturation buffer (30% formaldehyde, 100 mM sodium phosphate pH 6.8) were added to each sample and all samples were then incubated at 65° C. for 20-30 minutes and quick-cooled in an ice slurry for 5 minutes. Thirty μl of 4M ammonium acetate were added to each sample and the 150 μl samples were added to slots in the blotting cell with the aid of a 10-15 mm Hg vacuum. The filter was removed from the blotting cell, air dried and baked for 2 hours at 70° C. in vacuo.
The filter was cut into six pieces such that each piece had one slot cox.raining RNA from each of the three treatments described above. One of the filter pieces was incubated with 10 ml of prehybridization buffer (50% deienized formamide, 5× SSC, 5× Denhardt's, 100 μg/ml denatured calf thymus DNA, 20 μg/ml homopoly(A), 40 mM sodium phosphate pH 6.8 and 0.5% BSA) in a heat-sealable bag for 6 hours at 42° C. with occasional mixing. The filter piece was then hybridized with nick-translated pIn 2-1. This was performed by discarding the prehybridization solution from the bag and replacing it with 2.5 ml of hybridization buffer (50% deionized formamide, 5× SSC, 100 μg/ml denatured calf thymus DNA, 20 μg/ml homopoly(A) and 40 mM sodium phosphate, pH 6.8) containing 1.25×10^7 cpm of nick translated 2-1 plasmid described above. Nick-translated plasmid was denatured by boiling for 10 minutes followed by quick-cooling on ice. The filter was then hybridized overnight at 42° C. with occasional mixing.

[1] = tested on: tobacco leaf pieces (callus formation); test: Callus formation of leaf pieces from kanamycin-resistant tobacco shoots on selective medium; assay type: cell-based; settings: sixteen kanamycin-resistant shoots, three weeks; 10 ppb chlorsulfuron and/or 100 ppm D5293
Source text: Callus formation was scored as plus or minus after three weeks of growth.

5-2 gene (In 5-2 mRNA) = test: RNA slot blot / Northern analysis of 5-2 mRNA in roots of chemically treated corn; assay type: in vivo, corn (Missouri 17); settings: 200 mg/l hydroponic, six hours, corn roots, slot blot 2 μg total RNA
Experimental: Details of the techniques used to perform Example 3 are presented in Example 1. The cDNA library made from poly (A)+ RNA from the roots of N-(aminocarbonyl)-2-chlorobenzenesulfonamide-treated Missouri 17 corn plants described in Example 1 was analyzed for additional cDNA clones representing N-(aminocarbonyl)-2-chlorobenzenesulfonamide-induced mRNAs. […] This colony was designated In 5-2.
A small scale plasmid preparation was performed on an overnight culture of In 5-2 and an aliquot of the plasmid, designated pIn 5-2, was nick-translated as described earlier. Slot blot analysis was performed as described in Example 1 using nick-translated In 5-2 plasmid. […] This plasmid was designated pIn 5-2.
An aliquot of the small scale plasmid preparation of pIn 5-2 was digested to completion with PSt I and analyzed by agarose gel electrophoresis. The cDNA insert of the plasmid was excised as a single 420 bp Pst I fragment. Plasmid pin 5-2 was nick-translated and used to probe a Northern blot of RNA from both untreated and N-(aminocarbonyl)-2-chlorobenzenesulfonamide-treated roots.
(§1) The ability at various substituted benzenesulfonamides and related compound to induce the expression of the 2-1, 2-2, and 5-2 genes of Missouri 17 corn was evaluated. Corn seeds were germinated and grown hydroponically in 2 liter beakers as described in Example 1. On the tenth day, plants were transferred into fresh 0.5× Hoagland's solution containing the chemical to be tested. Root tissue was harvested from the plants after six hours of chemical treatment, quick-frozen by immersion in liquid N2, and stored at -80° C. until analyzed.
(§2) Details of the RNA isolation and slot blot analysis procedures are presented in Example 1. Total RNA was prepared from the root tissue of plants that had been treated with various chemicals using the previously described guanidine thiocyanate procedure. Replicate blots, each consisting of 2 μg of total RNA from tissues treated with each of the chemicals shown in tables 8 and 9, were prepared on nitrocellulose membranes using a Minifold II® Slot-blotter (Schleicher & Schuell) following the manufacturer's recommeneded procedure. Replicate blots were prehybridized and hybridized with cDNA probes made by nick translation of the purified cDNA inserts from plasmid pIn 2-1, pIn 2-2-3, and pIn 5-2. Slot blots were washed as described in Example 1 and exposed to Kodak X-OMAT XAR-5 film for 24 hours at -80° C. using a single Du Pont Lightning Plus intensifying screen. Film was developed using a Kodak X-OMAT film processor. The abililty of a chemical to induce the mRNA encoded by the three inducible genes was evaluated in one of two ways. Qualitative evaluation was performed by direct visual comparison of the autoradiographic signal intensities on the films for the hybridization of each probe to the different RNA samples. Quantitative evaluation was performed by cutting each slot containing hybridized RNA from the blot, immersing it in 2 ml of Du Pont ECONOFLUOR® scintillation cocktail and counting the radioactivity in each slot in a scintillation counter. The net amount of radioactivity hybridizing to N-(aminocarbonyl)-2-chlorobenzenesulfonamide-treated RNA after subtraction of radioactivity hybridizing to untreated RNA is presented in Table 15.

2-2 gene (In 2-2 mRNA) = test: RNA slot blot / Northern analysis of 2-2 mRNA in roots of chemically treated corn; assay type: in vivo, corn (Missouri 17); settings: 200 mg/l hydroponic, six hours, corn roots, slot blot 2 μg total RNA
Experimental: Details of the techniques used to perform the procedures used in Example 2 are presented in Example 1. The cDNA library made using poly(A)^+ RNA from the roots of N-(aminocarbonyl)-2-chlorobenzenesulfonamide-treated Missouri 17 corn plants (described in Example 1) was analyzed for additional cDNA clones representing mRNAs induced by substituted benzenesulfonamides. […] This colony was designated In 2-2.
A small scale plasmid preparation was performed on the plasmid contained in colony In 2-2. This plasmid was designated pIn 2-2. An aliquot of pIn 2-2 was nick translated as described earlier. A slot blot containing total RNA from N-(aminocarbonyl)-2-chlorobenzenesulfonamide-treated and untreated roots was prepared and probed with nick-translated pIn 2-2 as described for pIn 2-1 in Example 1.
The pIn 2-2 small scale plasmid preparation was digested to completion with Pst I and analyzed by agarose gel electrophoresis. The cDNA insert of the plasmid was excised by Pst I as a single 1200 bp fragment. Nick-translatedpIn 2-2 was used to probe a Northern blot of RNA from both untreated and N-(aminocarbonyl)-2-chlorobenzenesulfonamide-treated roots.
as §1, §2

2-2 corn promoter = test: Transient GUS expression assay, 2-2 corn promoter/GUS constructions in transformed rice protoplasts
Experimental: Cell counts were made with a Fuchs-Rosenthal hemocytometer.
Protoplasts were transformed as follows: Multiple aliquots of the protoplasts (5-10×10^6 cells) were centrifuged gently (80 g) for 4 minutes in sterile tubes. The supernatant was discarded and the cells were resuspended in 1 ml of Kern's F, pH 5.8 buffer. Ten μg of transforming DNA in less than 15 μl of TE pH 8.0 were added per million protoplasts. […] The resulting protoplast cell suspension was mixed gently and incubated at room temperature for 20 minutes. A volume of 13-15 mls of Kren's F, pH 7.0 solution was then added to dilute out PEG.
The transformed protoplasts were collected by centrifugation at 80 g for 4 minutes. The supernatant was discarded and the protoplasts were resuspended in 2.0 ml of Kren's F, pH 5.8. The protoplast sample was divided into two 1 ml aliquots. One ml of protoplast medium was added to one aliquot of the protoplasts, while 1 ml of the protoplast medium containing 100 μg/ml N-(aminocarbonyl)-2-chlorobenzenesulfonamide was added to the other aliquot.
The inducibility of the recombinant GUS genes whose expression were controlled by 2-1 corn gene promoter and downstream sequences were determined by measuring the level of the β-glucuronidase enzyme activity in protoplasts cultured in the presence and absence of N-(aminocarbonyl)-2-chlorobenzenesulfonamide. GUS activity was assayed by harvesting protoplasts in a clinical centrifuge at 80 g for 5 minutes, and resuspending them in 1.0 ml 1× GUS lysis buffer (50 mM sodium phosphate pH 7.0, 10 mM β-mercaptoethanol, 10 mM EDTA, 0.1% Triton X-100, 0.1% N-lauroylsarcosine). The suspension containing the lysed protoplasts was vortexed and spun at top speed in a table top clinical centrifuge for 5 minutes. Eighteen μl of the supernatant was transferred to a tube containing 782 μl of water for determination of protein content in the protoplast lysate. […] A protein concentration curve was prepared using bovine serum albumin as a standard. The protein content, so determined, was multiplied by a factor of 7.2 to give the protein content in 130 μl of extract (the amount of extract present in a single time point of the assay-see below). Of the remaining supernatant,585 μl was transferred to a fresh tube.
The substrate for the GUS assay was 4-methyl-umbelliferyl-β-D-glucuronide (4-MUG) and was obtained from Sigma Chemical Co., St. Louis Mo. […] 4-MUG was prepared as a 10 mM stock in 1× GUS buffer. Sixty-five μl of a pre-warmed (37° C.) 10 mM 4-MUG stock was added to the pre-warmed 585 μl protoplast extract, and a 100 μl aliquot of the resulting mixture was transferred to a well of a 24-well microtiter dish containing 0.9 ml of 0.2M Na2 CO3. Similar aliquots are removed at 1 hour, 2 hour, and 3 hours. The 4-MU flourescence of individual samples, from each time point was determined quantitatively using an excitation wavelength of 365 nm and measuring flourescence at an emission wavelength of 455 nm. […] GUS activity in the transient assay was expressed as picomoles of 4-MU produced per μg protein per hour.

[2] = tested on: metabolism of chlorsulfuron and metsulfuron methyl; settings: wheat and corn following application of the antidote; cited from earlier work
[3] = tested on: petunia P6.1 gene (P6 RNA); test: Northern / RNAse protection analysis of P6 RNA in roots of chemically treated petunia; assay type: in vivo, Petunia (Mitchell); settings: hydroponic 100 mg/l, roots
Source text: Petunia (Mitchell) seeds were germinated in soil and allowed to grow for one month under standard greenhouse conditions. Plants were transferred to a hydroponic growth apparatus in a greenhouse using foam plugs to support the plants. These plugs were then placed in holes in a wooden bDard and placed over a stainless steel sink containing 0.5× Hoagland's solution. The solution was aerated using standard aquarium pumps, and was changed weekly. After one month of hydroponic growth, plants were transferred to stainless steel trays containing either fresh 0.5 × Hoagland's or 0.5× Hoagland's containing 0.2 g per liter of N-(aminocarbonyl)-2-chlorobenzenesulfonamide. Root tissue was harvested after six hours of treatment.
Ten μg (2 mg/ml) of total RNA from control and N-(aminocarbonyl)-2-chlorobenzenesulfonamide-treated roots was denatured by adding 10 μl of deionized formamide, 3.5 μl formaldehyde, 4 μl 5× MEN buffer (40 mM MOPS pH 7.0, 10 mM sodium acetate, 1 mM EDTA) and incubating at 65° C. for 15 minutes. […] RNA was stained in the presence of 10 mM sodium phosphate pH 6.8 and 1 μg/ml acridine orange for 30 minutes. The gel was then desrained in 10 mM sodium phosphate for 30 minutes, and the RNA was visualized on a UV transilluminator, photographed, and blotted to nitrocellulose (Millipore HAWP). To do this, Whatman 3MM paper was placed below the gel on a glass plate so that the ends of the paper extended into 20× SSC. A sheet of nitroccllulose which had been prewet with 2× SSC was placed on top of the gel followed by a layer of Whatman 3MM, then a stack of paper towels 10 cm high. A glass plate and weight were then placed on top of the stack. Following an overnight transfer, the filter was rinsed briefly in 2× SSC, air dried, and baked in vacuo for 2 hours at 80° C.
The filters were prehybridized for 5 hours in plastic dishes at 42° C. using the hybridization buffer described earlier. Plasmid p6.1 was nick-translated by combining 1 μg of DNA with 5 μl 10× buffer (0.5M Tris-HCl pH 8.0, 0.1M MgSO4, 10 mM DTT and 0.5 mg/ml BSA), 5 μl 0.3 uM d(AGT)TP, 5 μl ^32 P-dCTP (Amersham, 10 mCi/ml, 400 Ci/mmole), 1 μl DNA polymerase 1 (5 U/μl, Boehringer-Mannheim), and 1 μl of 0.1 μg/ml DNAse 1 in a total volume of 50 μl. […] The reaction was then incubated for 5 minutes at 70° C., and labelled DNA was separated from unincorporated nucleotides by Sephadex® G-50 column chromatography. The prehybridization solution was removed from the bag and replaced with hybridization solution containing nick-translated plasmid P6.1 DNA at a concentration of 1×10^6 cpm/ml. […] Filters were washed twice with 2× SSC, 0.1% SDS at 42° C. followed by two washes in 0.1× SSC, 0.1%SDS at 60° C.
RNA probes complementary to the coding strands in both P644 and P645 were synthesized in the following reaction: 50 uCi ^32 P-UTP, 2 μl 5× transcription buffer (200 mM Tris-HCl pH 7.5, 30 mM MgCl2, 10 mM spermidine), 0.5 μl 0.2M DTT, and 0.5 μl of either T3 polymerase (plasmid P645) or T7 polymerase (plasmid P644). Incubation was carried out at 40° C. for 1 hour. The DNA template was hydrolyzed for 15 minutes at 37° C. by addition of 30 μl H2 O, 1 μl RNAsin, 2,5 μl vanadyl ribonucleoside complex, 6 μl 5× transcription buffer and 1 μl DNAse 1 (1 mg/ml) to the transcription reaction. The reaction was extracted with an equal volume of phenol:chloroform (1:1 v/v). The RNA was precipitated once with ethanol in the presence of ammonium acetate and once with ethanol in the presence of sodium acetate. The pellets were dissolved in 25 μl of TE. Ten μg of RNA from untreated and N-(aminocarbonyl)-2-chlorobenzenesulfonamide-treated plants were mixed with 1×10^6 cpm of each of the two probes in 30 ul of hybridization buffer (40 mM PIPES pH 6.7, 0.4M NaCl, 1 mM EDTA). […] Single stranded RNA was selectively digested by adding 300 μl RNAse A and RNAse T1 to 40 μg/ml and 2 μg/ml respectively in 10 mM Tris-HCl pH 7.5, 5 mM EDTA, and 300 mM NaCl.

[4] = rice protoplasts transformed with pTDS133, compound at 100 μg/l

Row | AVE. INDUCTION (2-2 corn promoter; [4]) | Assay 3 (induction of GUS activity) (2-2 corn promoter; [4]) | Compound | other results
1 | 30 | 30.2 | CCCCNC(=O)NS(=O)(=O)c1ccccc1S(=O)(=O)N(C)C(F)(F)C(F)F [Compound 16] | 
2 | 16.6 | 16.6 | CNC(=O)NS(=O)(=O)c1c(C)cccc1OC [Compound 17] | 
3 | 1.6 | 1.6 | CN(C)C(=O)c1cccnc1S(=O)(=O)NC(N)=O [Compound 18] | 
4 | 5.2 | 5.2 | CCCCNC(=O)NS(=O)(=O)c1cnccc1Cl [Compound 19] | 
5 | 38.6 | 38.6 | CCCNC(=O)NS(=O)(=O)c1ccccn1 [Compound 20] | 
6 | 24.2 | 24.2 | CC(C)(C)NC(=O)NS(=O)(=O)c1ccc(Cl)nc1Cl [Compound 21] | 

Continued, compound first:

Row | Compound | AVE. INDUCTION (2-2 corn promoter; [4]) | Assay 3 (induction of GUS activity) (2-2 corn promoter; [4]) | other results
7 | NS(=O)(=O)c1ccccc1Cl [2-chlorobenzenesulfonamide, reference compound] |  |  | hybridization of pIn 2-1 to root RNA (RNA slot blot) (2-1 gene (In 2-1 mRNA); hydroponic 0.2 g/liter): extremely weakly, if at all
8 | COc1nc(C)nc(NC(=O)NS(=O)(=O)c2ccccc2Cl)n1 [Chlorsulfuron, chlorsulfuron, reference compound] |  |  | Callus formation (shoots whose leaf pieces formed callus / shoots tested) [1]: 12/16
9 | CCCCNC(=O)NS(=O)(=O)c1ccccc1P(=O)(OCC)OCC [Compound 1] |  |  | In 5-2: net amount of radioactivity hybridizing to treated RNA after subtraction of untreated RNA (5-2 gene (In 5-2 mRNA)): 47; In 2-1: net amount of radioactivity hybridizing to treated RNA after subtraction of untreated RNA (2-1 gene (In 2-1 mRNA)): 204; In 2-2: net amount of radioactivity hybridizing to treated RNA after subtraction of untreated RNA (2-2 gene (In 2-2 mRNA)): 332
10 | CCCCNC(=O)NS(=O)(=O)c1cccc(Cl)c1S(=O)(=O)N(C)C [Compound 2 (Table 15), N'-[2-(n-butylaminocarbonyl)]-6-chloro-N,N-dimethyl-1,2-benzene-disulfonamide] |  |  | ability to induce GUS activity in transformed protoplasts (rank) (2-2 corn promoter; rice protoplasts transformed with pTDS133): most active
11 | NC(=O)NS(=O)(=O)c1ccccc1Cl [Compound 5] | 7.75 | 43 | Assay 1 (induction of GUS activity) (2-2 corn promoter; [4]): 8.7; Assay 2 (induction of GUS activity) (2-2 corn promoter; [4]): 6.8; In 5-2: net amount of radioactivity hybridizing to treated RNA after subtraction of untreated RNA (5-2 gene (In 5-2 mRNA)): 59; In 2-1: net amount of radioactivity hybridizing to treated RNA after subtraction of untreated RNA (2-1 gene (In 2-1 mRNA)): 296; In 2-2: net amount of radioactivity hybridizing to treated RNA after subtraction of untreated RNA (2-2 gene (In 2-2 mRNA)): 136
12 | CCCCNC(=O)NS(=O)(=O)c1ccoc1C(=O)OC [Compound 14] | 27.3 | 27.3 | 
13 | CCCCNC(=O)NS(=O)(=O)c1cccc(C)c1S(=O)(=O)CCC [Compound 15] | 24 | 24.1 | 
14 | C=CCN(CC=C)C(=O)C(Cl)Cl [N,N-diallyl-2,2-dichloroacetamide] |  |  | increases in the metabolism rates of chlorsulfuron and metsulfuron methyl [2]: 2 to 5 fold
15 | O=C(O)c1ccccc1O [Salicylic acid, reference compound] |  |  | time at which P6 RNA level declined to that seen in untreated plants [3]: ≤ 6 h; time at which maximal levels of P6 RNA were seen ([3]; sampled at 2, 4, 6 and 22 hours): ≤ 2 h
16 | N#CCON=C(C#N)c1ccccc1 [cyometrinil] |  |  | increases in the metabolism rates of chlorsulfuron and metsulfuron methyl [2]: 2 to 5 fold
17 | O=C1OC(=O)c2cccc3cccc1c23 [napthalic anhydride] |  |  | increases in the metabolism rates of chlorsulfuron and metsulfuron methyl [2]: 2 to 5 fold
